Data reported in patent US7598258B2, “Quinoline derivatives and quinazoline derivatives inhibiting autophosphorylation of macrophage colony stimulating factor receptor” (Kirin Beer Kabushiki Kaisha, priority 2002, dated 2009).

What follows are compounds tested against T1, mouse c-fms (Mus musculus, UniProt P09581) (assay: Inhibition of c-fms autophosphorylation in macrophage-like cell line BAC-1.2F5 by M-CSF stimulation (ELISA)). Conditions: BAC-1.2F5 cells, human recombinant M-CSF 50 ng/ml, read-out: c-fms autophosphorylation 50% inhibitory concentration (IC50).
T1 construct: Macrophage-like cell line BAC-1.2F5 which expresses c-fms as a M-CSF receptor on cell membranes; endogenous in cells; host or cells: BAC-1.2F5 mouse macrophage-like cell line
T1 sequence (P09581 20-977): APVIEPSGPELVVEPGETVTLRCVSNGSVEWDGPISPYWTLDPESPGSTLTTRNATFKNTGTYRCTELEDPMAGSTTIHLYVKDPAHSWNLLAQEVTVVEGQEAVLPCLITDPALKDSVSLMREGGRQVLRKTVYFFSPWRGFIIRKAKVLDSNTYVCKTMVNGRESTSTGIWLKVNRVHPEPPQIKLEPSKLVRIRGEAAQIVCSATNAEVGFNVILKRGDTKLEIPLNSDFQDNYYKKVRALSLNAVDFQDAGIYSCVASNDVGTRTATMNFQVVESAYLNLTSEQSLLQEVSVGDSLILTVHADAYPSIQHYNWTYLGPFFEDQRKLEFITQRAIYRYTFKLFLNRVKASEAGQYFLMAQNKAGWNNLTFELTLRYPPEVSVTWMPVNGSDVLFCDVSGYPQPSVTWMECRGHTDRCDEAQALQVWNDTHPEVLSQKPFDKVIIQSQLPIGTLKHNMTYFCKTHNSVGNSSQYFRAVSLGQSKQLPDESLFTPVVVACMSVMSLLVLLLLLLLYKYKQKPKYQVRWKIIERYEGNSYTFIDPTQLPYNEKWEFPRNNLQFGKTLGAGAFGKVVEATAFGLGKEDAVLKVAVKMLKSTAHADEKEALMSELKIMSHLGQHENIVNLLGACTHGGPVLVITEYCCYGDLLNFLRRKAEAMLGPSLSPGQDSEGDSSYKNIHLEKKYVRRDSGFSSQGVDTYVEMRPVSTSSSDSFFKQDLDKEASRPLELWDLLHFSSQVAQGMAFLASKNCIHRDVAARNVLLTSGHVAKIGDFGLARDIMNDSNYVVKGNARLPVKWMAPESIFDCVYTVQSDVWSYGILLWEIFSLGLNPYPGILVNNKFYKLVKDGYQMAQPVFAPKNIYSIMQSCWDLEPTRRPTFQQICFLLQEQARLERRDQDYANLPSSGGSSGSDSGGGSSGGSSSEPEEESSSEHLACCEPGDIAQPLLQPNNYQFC
Assay type: cell-based
Summary of the method: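 BAC-1.2F5 cells serum-starved (0.1% FCS) 12 h, preincubated with compound 1 h at 37° C, then stimulated 6 min with 50 ng/ml human recombinant M-CSF. Lysates captured on anti-phosphotyrosine plates, detected with anti-c-fms antiserum and peroxidase read-out at 450 nm. IC50 from inhibition normalised between ±M-CSF controls.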
In the case of `COc1cc2nccc(Oc3ccc(NC(=O)N[C@H](C)c4cccc(Br)c4)c(F)c3)c2cc1OC` [Example 63, N-[(1R)-1-(3-Bromophenyl)ethyl]-N′-{4-[(6,7-dimethoxy-4-quinolyl)oxy]-2-fluorophenyl}urea], the IC50 is reported as 30.9 nM.
`COc1cc2c(Oc3ccc(NC(=O)NC(C)c4ccc(F)cc4)cc3F)ccnc2cc1OCCCN1CCOCC1` (stereo not drawn) [Example 64, N-(3-Fluoro-4-{[6-methoxy-7-(3-morpholinopropoxy)-4-quinolyl]oxy}phenyl)-N′-[1-(4-fluorophenyl)ethyl]urea] gave an IC50 of 9.4 nM.
Compound `COc1cc2c(Oc3ccc(NC(=O)NC(C)c4ccc(F)c(F)c4)cc3F)ccnc2cc1OCCCN1CCOCC1` (stereo not drawn) [Example 65, N-[1-(3,4-Difluorophenyl)ethyl]-N′-(3-fluoro-4-{[6-methoxy-7-(3-morpholinopropoxy)-4-quinolyl]oxy}phenyl)urea] has an IC50 of 13.9 nM.
Work on `COc1cc2c(Oc3ccc(NC(=O)NC(C)c4ccc(F)cc4F)cc3F)ccnc2cc1OCCCN1CCOCC1` (stereo not drawn) [Example 66, N-[1-(2,4-Difluorophenyl)ethyl]-N′-(3-fluoro-4-{[6-methoxy-7-(3-morpholinopropoxy)-4-quinolyl]oxy}phenyl)urea] yielded an IC50 of 14.7 nM.
Work on `COc1cc2c(Oc3ccc(NC(=O)NC(C)c4ccc(F)cc4)c(F)c3)ccnc2cc1OCCCN1CCOCC1` (stereo not drawn) [Example 67, N-(2-Fluoro-4-{[6-methoxy-7-(3-morpholinopropoxy)-4-quinolyl]oxy}phenyl)-N′-[1-(4-fluorophenyl)ethyl]urea] yielded an IC50 of 5.7 nM.
Work on `COc1cc2c(Oc3ccc(NC(=O)NC(C)c4ccc(F)c(F)c4)c(F)c3)ccnc2cc1OCCCN1CCOCC1` (stereo not drawn) [Example 68, N-[1-(3,4-Difluorophenyl)ethyl]-N′-(2-fluoro-4-{[6-methoxy-7-(3-morpholinopropoxy)-4-quinolyl]oxy}phenyl)urea] yielded an IC50 of 9.8 nM.
`COc1cc2c(Oc3ccc(NC(=O)NC(C)c4ccc(F)cc4F)c(F)c3)ccnc2cc1OCCCN1CCOCC1` (stereo not drawn) [Example 69, N-[1-(2,4-Difluorophenyl)ethyl]-N′-(2-fluoro-4-{[6-methoxy-7-(3-morpholinopropoxy)-4-quinolyl]oxy}phenyl)urea] showed an IC50 of 11.5 nM.
`COc1cc2nccc(Oc3ccc(NC(=O)NC(C)c4nccs4)c(F)c3)c2cc1OC` (stereo not drawn) [Example 70, N-{4-[(6,7-Dimethoxy-4-quinolyl)oxy]-2-fluorophenyl}-N′-[1-(1,3-thiazol-2-yl)ethyl]urea] was tested, and the IC50 was 3.6 nM.
Work on `COc1cc2nccc(Oc3ccc(NC(=O)N[C@@H](C)c4nccs4)c(F)c3)c2cc1OC` [Example 71, N-{4-[(6,7-Dimethoxy-4-quinolyl)oxy]-2-fluorophenyl}-N′-[(1S)-1-(1,3-thiazol-2-yl)ethyl]urea] yielded an IC50 of 3 nM.
Work on `COc1cc2nccc(Oc3ccc(NC(=O)N[C@H](C)c4nccs4)c(F)c3)c2cc1OC` [Example 72, N-{4-[(6,7-Dimethoxy-4-quinolyl)oxy]-2-fluorophenyl}-N′-[(1R)-1-(1,3-thiazol-2-yl)ethyl]urea] yielded an IC50 of 4.9 nM.
Work on `COc1cc2nccc(Oc3ccc(NC(=O)NC(C)c4nccs4)cc3F)c2cc1OC` (stereo not drawn) [Example 73, N-{4-[(6,7-Dimethoxy-4-quinolyl)oxy]-3-fluorophenyl}-N′-[1-(1,3-thiazol-2-yl)ethyl]urea] yielded an IC50 of 3 nM.
`COc1cc(Oc2ccnc3cc(OC)c(OC)cc23)ccc1NC(=O)NC(C)c1nccs1` (stereo not drawn) [Example 74, N-{4-[(6,7-Dimethoxy-4-quinolyl)oxy]-2-methoxyphenyl}-N′-[1-(1,3-thiazol-2-yl)ethyl]urea] gave an IC50 of 5 nM.
Work on `COc1cc2nccc(Oc3ccc(NC(=O)NC(C)c4nccs4)cc3)c2cc1OC` (stereo not drawn) [Example 77, N-{4-[(6,7-Dimethoxy-4-quinolyl)oxy]phenyl}-N′-[1-(1,3-thiazol-2-yl)ethyl]urea] yielded an IC50 of 4.7 nM.
`COc1cc2nccc(Oc3ccc(NC(=O)N[C@@H](C)c4nccs4)cc3)c2cc1OC` [Example 78, N-{4-[(6,7-Dimethoxy-4-quinolyl)oxy]phenyl}-N′-[(S)-1-(1,3-thiazol-2-yl)ethyl]urea] gave an IC50 of 2.9 nM.
`COc1cc2nccc(Oc3ccc(NC(=O)N[C@H](C)c4nccs4)cc3)c2cc1OC` [Example 79, N-{4-[(6,7-Dimethoxy-4-quinolyl)oxy]phenyl}-N′-[(1R)-1-(1,3-thiazol-2-yl)ethyl]urea] was tested, and the IC50 was 6.9 nM.
Compound `COc1cc2nccc(Oc3ccc(NC(=O)NC(C)c4nccs4)cc3OC)c2cc1OC` (stereo not drawn) [Example 80, N-{4-[(6,7-Dimethoxy-4-quinolyl)oxy]-3-methoxyphenyl}-N′-[1-(1,3-thiazol-2-yl)ethyl]urea] has an IC50 of 6.2 nM.
With `COc1cc2nccc(Oc3ccc(NC(=O)N[C@@H](C)c4nccs4)cc3OC)c2cc1OC` [Example 81, N-{4-[(6,7-Dimethoxy-4-quinolyl)oxy]-3-methoxyphenyl}-N′-[(1S)-1-(1,3-thiazol-2-yl)ethyl]urea] the IC50 was 6.2 nM.
In the case of `COc1cc2nccc(Oc3ccc(NC(=O)N[C@H](C)c4nccs4)cc3OC)c2cc1OC` [Example 82, N-{4-[(6,7-Dimethoxy-4-quinolyl)oxy]-3-methoxyphenyl}-N′-[(1R)-1-(1,3-thiazol-2-yl)ethyl]urea], the IC50 is reported as 8.9 nM.
`COc1cc2nccc(Oc3ccc(NC(=O)NC(C)c4nccs4)c(C(F)(F)F)c3)c2cc1OC` (stereo not drawn) [Example 83, N-[4-[(6,7-Dimethoxy-4-quinolyl)oxy]-2-(trifluoromethyl)phenyl]-N′-[1-(1,3-thiazol-2-yl)ethyl]urea] gave an IC50 of 10.2 nM.
Compound `COc1cc2nccc(Oc3ccc(NC(=O)N[C@@H](C)c4nccs4)c(C(F)(F)F)c3)c2cc1OC` [Example 84, N-[4-[(6,7-Dimethoxy-4-quinolyl)oxy]-2-(trifluoromethyl)phenyl]-N′-[(1S)-1-(1,3-thiazol-2-yl)ethyl]urea] has an IC50 of 10.2 nM.
`COc1cc2nccc(Oc3ccc(NC(=O)N[C@H](C)c4nccs4)c(C(F)(F)F)c3)c2cc1OC` [Example 85, N-[4-[(6,7-Dimethoxy-4-quinolyl)oxy]-2-(trifluoromethyl)phenyl]-N′-[(1R)-1-(1,3-thiazol-2-yl)ethyl]urea] was tested, and the IC50 was 17.4 nM.
`COc1cc2nccc(Oc3cc(C)c(NC(=O)N[C@@H](C)c4nccs4)cc3C)c2cc1OC` [Example 86, N-{4-[(6,7-Dimethoxy-4-quinolyl)oxy]-2,5-dimethylphenyl}-N′-[(1S)-1-(1,3-thiazol-2-yl)ethyl]urea] gave an IC50 of 12.5 nM.
For `COc1cc2nccc(Oc3cc(C)c(NC(=O)N[C@H](C)c4nccs4)cc3C)c2cc1OC` [Example 87, N-{4-[(6,7-Dimethoxy-4-quinolyl)oxy]-2,5-dimethylphenyl}-N′-[(1R)-1-(1,3-thiazol-2-yl)ethyl]urea], the IC50 was 26.5 nM.
Compound `COc1cc2nccc(Oc3ccc(NC(=O)NC(C)c4nc(C)cs4)c(F)c3)c2cc1OC` (stereo not drawn) [Example 88, N-{4-[(6,7-Dimethoxy-4-quinolyl)oxy]-2-fluorophenyl}-N′-[1-(4-methyl-1,3-thiazol-2-yl)ethyl]urea] has an IC50 of 2.9 nM.
In the case of `COc1cc2nccc(Oc3ccc(NC(=O)NC(C)c4nc(C)cs4)cc3F)c2cc1OC` (stereo not drawn) [Example 89, N-{4-[(6,7-Dimethoxy-4-quinolyl)oxy]-3-fluorophenyl}-N′-[1-(4-methyl-1,3-thiazol-2-yl)ethyl]urea], the IC50 is reported as 3.1 nM.
`COc1cc(Oc2ccnc3cc(OC)c(OC)cc23)ccc1NC(=O)NC(C)c1nc(C)cs1` (stereo not drawn) [Example 90, N-{4-[(6,7-Dimethoxy-4-quinolyl)oxy]-2-methoxyphenyl}-N′-[1-(4-methyl-1,3-thiazol-2-yl)ethyl]urea] showed an IC50 of 3.6 nM.
With `COc1cc2nccc(Oc3ccc(NC(=O)NC(C)c4nc(C)cs4)cc3)c2cc1OC` (stereo not drawn) [Example 91, N-{4-[(6,7-Dimethoxy-4-quinolyl)oxy]phenyl}-N′-[1-(4-methyl-1,3-thiazol-2-yl)ethyl]urea] the IC50 was 3.2 nM.
With `COc1cc2nccc(Oc3ccc(NC(=O)NC(C)c4nc(C)cs4)c(C(F)(F)F)c3)c2cc1OC` (stereo not drawn) [Example 92, N-[4-[(6,7-Dimethoxy-4-quinolyl)oxy]-2-(trifluoromethyl)phenyl]-N′-[1-(4-methyl-1,3-thiazol-2-yl)ethyl]urea] the IC50 was 8.4 nM.
`COc1cc2nccc(Oc3cc(C)c(NC(=O)NC(C)c4nc(C)cs4)cc3C)c2cc1OC` (stereo not drawn) [Example 93, N-{4-[(6,7-Dimethoxy-4-quinolyl)oxy]-2,5-dimethylphenyl}-N′-[1-(4-methyl-1,3-thiazol-2-yl)ethyl]urea] gave an IC50 of 38.6 nM.
With `COc1cc(Oc2ccnc3cc(OC)c(OC)cc23)ccc1NC(=O)NC(C)c1nc(C)c(C)s1` (stereo not drawn) [Example 99, N-{4-[(6,7-Dimethoxy-4-quinolyl)oxy]-2-methoxyphenyl}-N′-[1-(4,5-dimethyl-1,3-thiazol-2-yl)ethyl]urea] the IC50 was 12.6 nM.
